The results in this text go back to patent US12133486B2, “Methods of propagation of arbuscular mycorrhizal fungi (AMF) and uses thereof” (Terra Microbes, LLC, priority 2021, dated 2024).

For one assay, the system named is AM fungi. Nature of the assay: Field plot study: AMF spore counts in soil around western wheatgrass roots. Type of assay: in vivo. To be noted: field plots. The text has this:
(§1) Twelve plots of size 50 cm by 50 cm were established on a homogenous site 2.54 meters (running northeast and southwest) by 4.06 meters (running southeast and northwest). Plant distribution was mostly homogeneous across the entire site, with western wheatgrass dominant. The plots were in four rows with three plots in each row. Within a row plots were 25 cm apart. Rows were 50 cm apart. An experimental unit was one plot. Treatments were replicated three times. Treatments included: controls (no treatment), potassium chloride treatment, potassium phosphate treatment, and potassium phosphite treatment. (See, FIG. 2).
In this study phosphorus, either as phosphate or phosphite, was added at a rate of 120 kg of P per hectare (ha). Scaled down this equates to 3 grams of phosphorous per plot. One ha is 10,000 m^2. Each plot is 50 cm by 50 cm, or 0.25 m^2. The subsequent calculation then is 120 Kg/10,000 m^2=X/0.25 m^2; X=3.00 grams of P per plot. (See Table 2).
(§2) Treatments: All plots received the same amount of solution. The control plots were treated with distilled water only (6.375 L). The KCl plots treated with distilled water containing the same amount of K as was needed to convert the phosphorous acid (H3PO3) to dipotassium phosphite (K2HPO3). The phosphate plots were treated with sufficient dipotassium phosphate (K2HPO4) to deliver 3 g of P per plot dissolved in the same amount of distilled water as the control plots received and the KCl plots received. The phosphite plots were treated with sufficient dipotassium phosphite (K2HPO3) to deliver 3 g of P per plot dissolved in the same amount of distilled water as the control plots received, the KCl plots received and the phosphate plots received.
The field experiment reported in this example was conducted during June through October. Plots were established during early June and treated on the 15th and 16th day (as in Example 3 above). The first soil and root sampling was performed 14 days later (t=14). The second set of samples were taken 47 days later (t=61), and the third set 60 days later (t=121 days). Sample size and depth was as detailed above in Example 3.
AMF spores were evaluated in soil samples from which plant roots including plant roots of western wheatgrass had existed and had been removed. Evaluations were performed on the T=0 and the T=47 samples. These evaluations generally entailed mixing the sample with water, centrifugation, and decanting water. This step was performed to remove light organic matter and other light materials, e.g., leaf fragments. This was followed by mixing the soil with a solution of sodium hexametaphosphate (2%) in 2 M sucrose. Centrifugation results in the spores floating on the sucrose solution or suspended in it. The sucrose solution plus spores is decanted into a separatory funnel. The suspension was allowed to exit the funnel one drop at a time. The spores adhere to the inside of the funnel and once all liquid has exited the funnel the spores are washed into a petri-dish and counted under a dissecting microscope.
The specific protocol for spore extraction was as follows: • A) Weigh 5 g of air dried soil into a 20 ml centrifuge tube. For a complete sample this is replicated four times. • B) Fill each tube with water to ˜1.5 cm of the top. Stir to suspend organic matter and other light debris. Let all tubes stand for 10 minutes. • C) Centrifuge at 2000 rpm (475.2×g) for 10 minutes. Be sure tubes are placed across from each other in the centrifuge and are within 0.1 g of the same weight. • D) Pour off and discard supernatant while stirring surface and rotating tube. • E) If much organic matter and other light material remains, repeat steps B through D. • F) Add sucrose/sodium hexametaphosphate solution (2 molar sucrose containing 2% hexametaphosphate: 684.6 g of sucrose (store grade is adequate) and 20 g of sodium hexametaphosphate in one liter of solution using distilled water) to centrifuge tubes to ˜1.5 cm of top. […]

Assay [1] relates to AMF infections of western wheatgrass (Pascopyron smithii) roots. In words: Field plot study: AM fungal infection of western wheatgrass roots. Type of assay: in vivo. Particulars: field plots.
Excerpt: as §1, §2
The field experiment reported in this example was conducted during June through October. Plots were established during early June and treated on the 15th and 16th day (as in Example 3 above). […] Sample size and depth was as detailed above in Example 3.
Analyses of infections were performed by examining roots of wheatgrass (Pascopyron smithii). This plant was the dominant plant in all of the plots and is known to be commonly infected with AM fungi. (See, Loree M. A. J. and Williams S. E., New Phytologist, 106:735-744, 1987; and Wang B. and Qui Y.-L. 2006, Ibid.). During sampling of soils using the methodology outlined in Example 3, above, root of target plants were removed and separated by plant species, each sample being labeled and preserved in FAA solution until being further processed.
Staining of the roots was achieved according to published procedures (see, Phillips J. M. and Hayman D. S., Trans. Brit. Mycological Soc., 55:158-160, 1970) except that cotton blue lactophenol was substituted with lactic acid glycerol with trypan blue since lactophenol is toxic. The procedure used for staining was as follows: • A) Remove roots from FAA Solutions. Cut into 1 cm lengths. Place in test tube, push roots to the bottom of the test tube. • B) Cover roots with 10% KOH (10 grams of reagent grade KOH in enough distilled water to 100 ml). Let stand overnight, about 10 hours. • C) Simmer at 90° C. for one hour in a water bath (container with water and test tubes with roots over a heat source). • D) Rinse in tap water. • E) Rinse five minutes in 0.1 N HCl (3.65 […] of HCl in 1000 ml total volume with distilled water). • F) Rinse in tap water. • G) Simmer at 90° C. one hour (in water bath) in Trypan blue Lactic Acid Glycerol (distilled water, 100 ml; lactic acid (reagent grade 85 to 88%) 100 ml; glycerin (reagent grade 85% also listed as glycerol), 200 ml; trypan blue, 0.1 grams (60% dye content). • H) Rinse in tap water. • I) Place in clear lactic acid glycerol (same formulation as above except without the Trypan blue) if destaining is necessary. Samples can be simmered at 90° C. (one hour in water bath) or left at room temperature for at least 72 hours or longer. • J) Mount on standard glass slide (2.5 cm by 7.6 cm) in lactic acid glycerol. Cover slip (2.3 cm by 4.8 cm) used.
An estimate of the degree of infection of western wheatgrass was made by making microscopic scans of each slide such that 40 root segments were evaluated. The evaluation was performed using the 20× objective, e.g., 200× total magnification—eyepieces were 10× multiplied by the objective magnification. […]

Turning to `[Cl-].[K+]` [KCl, potassium chloride, reference compound], the “Total Spores t = 47 days” value with AM fungi (mean n = 3, P added at 120 kg/ha (KCl: same K), second sampling) came to 14806Ab Per 100 g soil. Further, the “Total Spores t = 0 days” value with AM fungi (mean n = 3, P added at 120 kg/ha (KCl: same K), t = 0 = first sampling, 14 days after treatment) was determined as 6398Aa Per 100 g soil. For the same molecule, the “spore numbers compared with the control” value with AM fungi (second sampling, t = 47) is “significant increase in spore numbers from the control”. In addition, in assay [1] (third sampling, t = 97 days), the “infection level compared to the control and phosphorus treated plants” value is on record as “small depression in infection levels”. Also, the “AM Infection t = 0 days” value in assay [1] (western wheatgrass roots, mean n = 3, first sampling) is on record as 31Aa Per forty 1.1 mm root segments. Moreover, the “AM Infection t = 47 days” value in assay [1] (western wheatgrass roots, mean n = 3, second sampling) is recorded as 34Aab Per forty 1.1 mm root segments. In assay [1] (western wheatgrass roots, mean n = 3, third sampling), the “AM Infection t = 97 days” value is recorded as 36BCabc Per forty 1.1 mm root segments.
